The text below walks through data of patent US9200017B2, “Multimodal imaging of fibrin” (The General Hospital Corporation, priority 2009, dated 2015).

This assay has as its target T1, Thrombus (Rattus norvegicus, UniProt P02680+P06399+P14480).
T1 construct: thrombin cleaves fibrinopeptides on fibrinogen resulting in an end-to-end polymerization to give the polymer fibrin; A day old autologous blood clot was injected into the right internal carotid artery; from tissue; host or cells: autologous blood clot in the right internal carotid artery of Wistar rats
T1 sequence (P06399 37-550 isoform P06399-2 limits assumed): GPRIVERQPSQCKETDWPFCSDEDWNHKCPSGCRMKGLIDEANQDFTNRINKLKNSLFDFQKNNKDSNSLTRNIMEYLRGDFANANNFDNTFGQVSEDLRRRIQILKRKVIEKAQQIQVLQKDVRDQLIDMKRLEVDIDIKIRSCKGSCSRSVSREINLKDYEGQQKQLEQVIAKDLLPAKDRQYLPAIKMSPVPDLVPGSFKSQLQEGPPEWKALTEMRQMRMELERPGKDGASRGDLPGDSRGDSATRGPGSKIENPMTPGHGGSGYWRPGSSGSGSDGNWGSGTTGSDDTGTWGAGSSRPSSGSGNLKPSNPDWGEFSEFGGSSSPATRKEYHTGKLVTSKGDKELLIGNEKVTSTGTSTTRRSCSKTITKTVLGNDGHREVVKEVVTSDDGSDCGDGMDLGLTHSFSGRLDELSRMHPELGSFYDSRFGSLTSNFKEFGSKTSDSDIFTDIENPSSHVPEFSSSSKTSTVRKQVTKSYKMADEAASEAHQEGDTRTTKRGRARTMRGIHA
T1 sequence (P14480 33-479 limits assumed): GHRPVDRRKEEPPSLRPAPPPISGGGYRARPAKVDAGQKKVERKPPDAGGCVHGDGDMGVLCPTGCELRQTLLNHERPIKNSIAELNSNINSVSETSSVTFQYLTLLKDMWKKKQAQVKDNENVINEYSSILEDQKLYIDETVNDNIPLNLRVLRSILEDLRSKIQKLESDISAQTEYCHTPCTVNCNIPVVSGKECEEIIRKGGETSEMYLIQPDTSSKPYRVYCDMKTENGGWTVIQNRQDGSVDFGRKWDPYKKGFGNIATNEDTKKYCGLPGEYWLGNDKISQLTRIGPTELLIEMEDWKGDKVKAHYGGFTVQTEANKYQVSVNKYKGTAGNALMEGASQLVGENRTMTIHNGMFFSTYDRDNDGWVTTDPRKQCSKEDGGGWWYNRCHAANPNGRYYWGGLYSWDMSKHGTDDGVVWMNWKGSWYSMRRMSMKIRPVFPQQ
T1 sequence (P02680 26-437 isoform P02680-2 limits assumed): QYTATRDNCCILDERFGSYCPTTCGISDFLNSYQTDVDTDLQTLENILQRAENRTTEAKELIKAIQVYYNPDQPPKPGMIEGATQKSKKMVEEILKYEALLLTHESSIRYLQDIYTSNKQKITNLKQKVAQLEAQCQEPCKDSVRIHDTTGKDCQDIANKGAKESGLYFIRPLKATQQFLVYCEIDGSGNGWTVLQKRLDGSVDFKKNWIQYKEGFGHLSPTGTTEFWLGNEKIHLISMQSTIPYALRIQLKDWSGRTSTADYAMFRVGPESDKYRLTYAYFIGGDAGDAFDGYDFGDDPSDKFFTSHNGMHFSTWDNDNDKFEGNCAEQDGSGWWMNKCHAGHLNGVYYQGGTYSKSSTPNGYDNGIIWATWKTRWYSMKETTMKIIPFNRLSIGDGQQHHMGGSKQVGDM
Briefly: MR-PET imaging of occlusive thrombus in right internal carotid artery of rats. Format: in vivo. As to conditions: for PET time-activity curve in thrombus: over 90 min, contralateral vessel signal decays with time; for Thrombus visibility on black-blood T1-weighted MR post injection: six animals imaged. How it is done:
All animal studies were approved by the Subcommittee on Research Animal Care at Massachusetts General Hospital. The occlusive thrombus model was described previously (Zhang R L, Chopp M, Zhang Z G, Jiang Q, and Ewing J R., Brain Res. 1997 766(1-2):83-92). Briefly, male Wistar rats (350-400 g, n=8; Charles River Laboratories, Wilmington, Mass.) were anaesthetized with isoflurane (1-2% in 70% N2O and 30% O2) and body temperature was kept at 37.5° C. A day old autologous blood clot was injected into the right internal carotid artery (ICA) at the level of the middle cerebral artery (MCA). The femoral vein was cannulated for intravenous delivery of the contrast agent. Simultaneous PET and MR were acquired on a clinical 3T MRI-BrainPET scanner using a home-built receive surface coil and a CP transmit coil. After baseline MR scans were acquired, the dual MR-PET probe was injected at a dose of 11.5 μmol/kg (46 μmol Gd/kg, total activity=19.6±5.9 MBq). The animals were sacrificed 2 h post-injection. In total, six animals underwent imaging while in two additional animals only biodistribution data was collected.
The list-mode emission data from PET were rebinned in the sinogram space for fast reconstruction. The uncorrected PET volume was first reconstructed and binary segmented based on an empirically determined threshold in soft tissue and air. A uniform linear attenuation coefficient (0.096 cm^−1, corresponding to water at 511 keV) was assigned to all soft tissue voxels and the resulting attenuation map (combined with the coil attenuation map) was forward projected to derive the attenuation correction factors in sinogram space. A model-based approach was used to derive the scatter sinogram. The normalization was calculated from a 64 hr scan of a plane-source rotated in the FOV. The images were reconstructed with the ordinary Poisson ordered subsets expectation maximization (OP-OSEM) algorithm using 16 subsets and 6 iterations. The reconstructed volume consists of 153 slices with 256×256 pixels (1.25×1.25×1.25 mm^3). The spatial resolution at the center of the field of view is approximately 2.5 mm.
The emission data were recorded in list-mode format for approximately 90 min (9×10 min frames) after MR-PET probe administration. The data acquired in each individual frame were processed and images were reconstructed after acquisition for immediate analysis. Images were also reconstructed from the data acquired 30-90 minutes post injection. Additionally, thirty 3-minute frames were generated and the tracer uptake in structures of interest as a function of time was analyzed.
The MR imaging sequence included MP-RAGE and 3D T1-weighted gradient echo scans with and without inflow saturation. The latter were used for time of flight (TOF) angiography. The field of view scanned for the 3D sequences was 85×85 mm^2, with repetition time (TR), echo time (TE), and flip angle of 32 ms, 5.78 ms and 18°, respectively. […] For the MP-RAGE, the parameters used were inversion time TI=900 ms, TR/TE=2300/4.4, NEX=1, FOV=49×49 mm^2, matrix=192×192, slice thickness=0.26 mm for resolution=0.26 mm^3.
MR images were analyzed using OsiriX (www.osirix-viewer.com) by drawing regions of interest (ROI) in the thrombus, contralateral artery and adjacent tissue and quantifying signal intensity (SI). Noise was quantified as the standard deviation (SD) of the signal measured in the air outside the animal. Contrast to noise ratios (CNR) were calculated for the difference between tissue A and tissue B using the following equation (1). CNR(tissue A/tissue B)=[SI(tissue A)−SI(tissue B)]/SD(air) (1)
Signal intensity ratios (SIR) between the thrombus (ipsilateral) and contralateral vessel were calculated using equation (2) for images pre- and 10 min post-probe administration. SIR=[SI(ipsilateral)/SI(contralateral)]post/[SI(ipsilateral)/SI(contralateral)]pre (2) […]

For the substance Gd3-EP-2104R-Cu [Compound 21], the “PET time-activity curve in thrombus” value is “rapid and static uptake in the thrombus”; the “Thrombus visibility on black-blood T1-weighted MR post injection” value is reported as “now bright indicating the presence of thrombus”. Besides, the “CNRthrombus:brain post probe” value (black-blood MR, 11.5 μmol/kg i.v., pre-injection −2.0±2.2, p<0.005) amounted to 13.0±2.0. The “PET SIRipsi:contra” value (hyperintense lesion vs identical contralateral volume of interest, p<0.01) was found to be 1.85±0.48. In addition, for the setting “listed as Gd3-EP-2104R-^64Cu”, the “PET time-activity curve in thrombus” value is given as “activity remains approximately constant over 90 min” and the “Thrombus visibility on black-blood T1-weighted MR post injection” value is on record as “clearly visible”. For the setting “thrombus vs contralateral vessel, pre and 10 min post probe, p<0.01”, the “MR SIRpost/SIRpre” value was 1.71±0.35.
